Earlier results in US20010004459A1, “Composition with sustained release of active principle, capable of forming a microemulsion” (priority 1998, published 2001).

Conditions: acidic pH (dissolution curve at pH 1.2, FIG. 2)

- solubility at acidic pH: insoluble
Compound: COc1ccc2c(c1)c(CC(=O)O)c(C)n2C(=O)c1ccc(Cl)cc1 [indomethacin, Indomethacin]
